Experimental data as given in US9617289B2, “RSV antiviral compounds” (JANSSEN R&D IRELAND, priority 2012, dated 2017).

Tested on: rgRSV224 virus
Assay: Antiviral activity: inhibition of rgRSV224 (GFP-expressing RSV) replication in HeLa cells
Type: cell-based, respiratory syncytial virus
Conditions: human respiratory syncytial virus, HeLa, 72 h, read-out: pEC50, rgRSV224 (MOI=0.02) in HeLa cells, GFP expression three days post-virus exposure (converted)
Method: Black 96-well clear-bottom microtiter plates (Corning, Amsterdam, The Netherlands) were filled in duplicate using a customized robot system with serial 4-fold dilutions of compound in a final volume of 50 μl culture medium [RPMI medium without phenol red, 10% FBS, 0.04% gentamycin (50 mg/ml) and 0.5% DMSO]. Then, 100 μl of a HeLa cell suspension (5×10^4 cells/ml) in culture medium was added to each well followed by the addition of 50 μl rgRSV224 (MOI=0.02) virus in culture medium using a multidrop dispenser (Thermo Scientific, Erembodegem, Belgium). rgRSV224 virus is an engineered virus that includes an additional GFP gene (Hallak et al, 2000) and was in-licensed from the NIH (Bethesda, Md., USA). Medium, virus- and mock-infected controls were included in each test. Cells were incubated at 37° C. in a 5% CO2 atmosphere. Three days post-virus exposure, viral replication was quantified by measuring GFP expression in the cells by a MSM laser microscope (Tibotec, Beerse, Belgium). The EC50 was defined as the 50% inhibitory concentration for GFP expression. In parallel, compounds were incubated for three days in a set of white 96-well microtitier plates (Corning) and the cytotoxicity of compounds in HeLa cells was determined by measuring the ATP content of the cells using the ATPlite kit (PerkinElmer, Zaventem, Belgium) according to the manufacturer's instructions. The CC50 was defined as the 50% concentration for cytotoxicity. SI is calculated as CC50/EC50.

Structure (SMILES)	EC50 [nM]
CC(C)(C)OC(=O)N1CCC2(CC1)C(=O)N(Cc1nc3cc(Cl)ccc3n1CCCS(C)(=O)=O)c1ccccc12 [Compound 39, tert-butyl 1-((5-chloro-1-(3-(methylsulfonyl)propyl)-1H-benzo[d]imidazol-2-yl)methyl)-2-oxospiro[indoline-3,4′-piperidine]-1′-carboxylate]	0.631
CS(=O)(=O)CCCn1c(CN2C(=O)C3(CCOCC3)c3ccccc32)nc2cc(Cl)ccc21 [Compound 40, 1-((5-chloro-1-(3-(methylsulfonyl)propyl)-1H-benzo[d]-imidazol-2-yl)methyl)-2′,3′,5′,6′-tetrahydrospiro[indoline-3,4′-pyran]-2-one]	2.51
CS(=O)(=O)CCCn1c(CN2C(=O)C3(CCOCC3)c3cnccc32)nc2cc(Cl)ccc21 [Compound 41, 1-((5-chloro-1-(3-(methylsulfonyl)propyl)-1H-benzo[d]-imidazol-2-yl)methyl)-2,3,5,6-tetrahydrospiro[pyran-4,3′-pyrrolo[3,2-c]pyridin]-2′(1′H)-one]	45.7
CC(=O)N1CCC2(CC1)C(=O)N(Cc1nc3cc(Cl)ccc3n1CCCS(C)(=O)=O)c1cnccc12 [Compound 42, 1-acetyl-1′-((5-chloro-1-(3-(methylsulfonyl)propyl)-1H-benzo[d]imidazol-2-yl)methyl)spiro[piperidine-4,3′-pyrrolo-[2,3-c]pyridin]-2′(1′H)-one]	< 0.158
O=C(Oc1ccc(F)cc1)N1CC2(C1)C(=O)N(Cc1nc3cc(Cl)ccc3n1CCCC(F)(F)F)c1ccccc12 [Compound 43, 4-fluorophenyl 1′-((5-chloro-1-(4,4,4-trifluorobutyl)-1H-benzo[d]imidazol-2-yl)methyl)-2′-oxospiro[azetidine-3,3′-indoline]-1-carboxytale]	0.251
CC(C)(C)OC(=O)N1CC2(C1)C(=O)N(Cc1nc3cc(Cl)ccc3n1CCCC(F)(F)F)c1ccccc12 [Compound 44, tert-butyl 1′-((5-chloro-1-(4,4,4-trifluorobutyl)-1H-benzo[d]imidazol-2-yl)methyl)-2′-oxospiro[azetidine-3,3′-indoline]-1-carboxylate]	0.251
CC(C)COC(=O)N1CC2(C1)C(=O)N(Cc1nc3cc(Cl)ccc3n1CCCC(F)(F)F)c1ccccc12 [Compound 45, isobutyl 1′-((5-chloro-1-(4,4,4-trifluorobutyl)-1H-benzo[d]-imidazol-2-yl)methyl)-2′-oxospiro[azetidine-3,3′-indoline]-1-carboxylate]	0.398
O=C1N(Cc2nc3cc(Cl)ccc3n2CCCC(F)(F)F)c2ccccc2C12CNC2 [Compound 46, 1′-((5-chloro-1-(4,4,4-trifluorobutyl)-1H-benzo[d]imidazol-2-yl)methyl)spiro[azetidine-3,3-indolin]-2′-one]	0.631
O=C(OC1CCCC1)N1CCC2(CC1)C(=O)N(Cc1nc3cc(Cl)ccc3n1CCCC(F)(F)F)c1ccccc12 [Compound 47, Cyclopentyl 1-((5-chloro-1-(4,4,4-trifluorobutyl)-1H-benzo[d]imidazol-2-yl)methyl)-2-oxospiro[indoline-3,4′-piperidine]-1′-carboxylate]	1.58
CC(C)(C)OC(=O)N1CCC2(CC1)C(=O)N(Cc1nc3cc(Cl)ccc3n1CCCC(F)(F)F)c1ccccc12 [Compound 48]	2.51
O=C1N(Cc2nc3cc(Cl)ccc3n2CCCC(F)(F)F)c2ccccc2C12CCNCC2 [Compound 49, 1-((5-chloro-1-(4,4,4-trifluorobutyl)-1H-benzo[d]imidazol-2-yl)methyl) spiro[indoline-3,4′-piperidin]-2-one]	5.01
O=C(OCc1ccccc1)N1CCC2(CC1)C(=O)N(Cc1nc3cc(Cl)ccc3n1CCCC(F)(F)F)c1ccccc12 [Compound 50, benzyl 1-((5-chloro-1-(4,4,4-trifluorobutyl)-1H-benzo[d]-imidazol-2-yl)methyl)-2-oxospiro[indoline-3,4′-piperidine]-1′-carboxylate]	10
